Measured values reported in ChEMBL document CHEMBL3774326, “New derivative of 2-(2,4-dihydroxyphenyl)thieno-1,3-thiazin-4-one (BChTT) elicits antiproliferative effect via p38-mediated cell cycle arrest in cancer cells” (Bioorg Med Chem, 2016).
The source made the active and inactive calls. The rule behind the calls is not given here.

What was measured:
[1] = Cytotoxicity against rat FaO cells assessed as cell viability at 100 uM after 24 hrs by LDH assay; type: cell-based
[2] = Cytotoxicity against rat OLN93 cells assessed as cell viability at 10 to 100 uM after 24 hrs by LDH assay; type: cell-based
A549 [3] = experiment: Antiproliferative activity against human A549 cells after 96 hrs by MTT assay; type: functional, cell-based
[4] = target: T1, MAP kinase p38 (Homo sapiens) (UniProt O15264+Q15759+Q16539+P53778); experiment: Increase in phosphorylated p38 level in human HT-29 cells after 0.5 to 24 hrs by Western blot analysis; type: cell-based
A549 [5] = experiment: Inhibition of DNA synthesis in human A549 cells assessed as BrdU incorporation after 48 hrs by ELISA; type: functional, cell-based
[6] = target: T1, MAP kinase p38 (Homo sapiens); experiment: Increase in phosphorylated p38 level in human A549 cells at 10 to 50 uM after 24 hrs by Western blot analysis; type: cell-based
C6 [7] = experiment: Antiproliferative activity against rat C6 cells at 25 to 50 uM after 48 hrs by MTT assay in presence of p38 siRNA; type: functional, cell-based
[8] = target: T2, Mitogen-activated protein kinase; ERK1/ERK2 (Homo sapiens) (UniProt P27361+P28482); experiment: Effect on ERK1/2 phosphorylation in human A549 cells at 10 to 50 uM after 0.5 to 24 hrs by Western blot analysis; type: cell-based
T2 sequence (P27361 whole entry, looked up): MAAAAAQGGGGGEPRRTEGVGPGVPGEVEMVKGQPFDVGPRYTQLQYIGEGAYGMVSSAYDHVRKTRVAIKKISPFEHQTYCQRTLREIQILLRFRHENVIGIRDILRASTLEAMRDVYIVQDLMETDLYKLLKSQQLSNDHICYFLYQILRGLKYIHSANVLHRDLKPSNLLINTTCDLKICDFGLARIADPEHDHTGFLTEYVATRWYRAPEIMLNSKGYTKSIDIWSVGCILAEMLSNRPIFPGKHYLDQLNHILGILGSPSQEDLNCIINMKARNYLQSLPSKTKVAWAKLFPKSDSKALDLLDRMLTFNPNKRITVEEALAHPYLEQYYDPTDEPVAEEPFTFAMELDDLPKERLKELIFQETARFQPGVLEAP
T2 sequence (P28482 whole entry, looked up): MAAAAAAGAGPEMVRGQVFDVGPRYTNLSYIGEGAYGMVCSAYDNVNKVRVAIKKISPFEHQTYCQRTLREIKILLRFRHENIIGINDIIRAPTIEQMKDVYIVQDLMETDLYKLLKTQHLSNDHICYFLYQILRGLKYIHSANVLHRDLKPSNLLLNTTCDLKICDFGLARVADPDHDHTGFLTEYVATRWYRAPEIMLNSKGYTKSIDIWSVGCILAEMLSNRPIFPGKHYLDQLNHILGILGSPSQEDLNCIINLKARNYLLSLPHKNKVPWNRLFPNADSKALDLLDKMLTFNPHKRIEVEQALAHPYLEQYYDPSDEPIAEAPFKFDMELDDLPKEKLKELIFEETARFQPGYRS

A549 [9] = experiment: Effect on CREB expression in human A549 cells at 10 to 50 uM after 0.5 to 24 hrs by Western blot analysis; type: functional, cell-based
HT-29 [10] = experiment: Inhibition of DNA synthesis in human HT-29 cells assessed as BrdU incorporation after 48 hrs by ELISA; type: functional, cell-based
C6 [11] = experiment: Effect on CREB expression in rat C6 cells at 10 to 50 uM after 0.5 to 24 hrs by Western blot analysis; type: functional, cell-based
A549 [12] = experiment: Induction of cell cycle arrest in human A549 cells assessed as decrease in cell level at S phase after 24 to 48 hrs by propidium iodide staining-based flow cytometric analysis; type: functional
[13] = target: T1, MAP kinase p38 (Homo sapiens); experiment: Increase in phosphorylated p38 level in human A549 cells after 0.5 hrs by Western blot analysis; type: cell-based
A549 [14] = experiment: Decrease in cyclin D1 expression in human A549 cells at 50 uM after 3 to 24 hrs by Western blot analysis; type: functional, cell-based
HT-29 [15] = experiment: Decrease in cyclin D1 expression in human HT-29 cells at 50 uM after 3 to 24 hrs by Western blot analysis; type: functional, cell-based
[16] = Cytotoxicity against HSF assessed as cell viability at 10 to 100 uM after 24 hrs by LDH assay; settings: human
A549 [17] = experiment: Effect on c-myc expression in human A549 cells at 10 to 50 uM after 0.5 to 24 hrs by Western blot analysis; type: functional, cell-based
C6 [18] = experiment: Induction of cell cycle arrest in rat C6 cells assessed as accumulation at G0/G1 phase after 24 to 48 hrs by propidium iodide staining-based flow cytometric analysis; type: functional
HT-29 [19] = experiment: Antiproliferative activity against human HT-29 cells after 96 hrs by MTT assay; type: functional, cell-based
HT-29 [20] = experiment: Effect on CREB expression in human HT-29 cells at 10 to 50 uM after 0.5 to 24 hrs by Western blot analysis; type: functional, cell-based
[21] = target: T2, Mitogen-activated protein kinase; ERK1/ERK2 (Homo sapiens); experiment: Effect on ERK1/2 phosphorylation in human HT-29 cells at 10 to 50 uM after 0.5 to 24 hrs by Western blot analysis; type: cell-based
C6 [22] = experiment: Induction of cell cycle arrest in rat C6 cells assessed as decrease in cell level at S phase after 24 to 48 hrs by propidium iodide staining-based flow cytometric analysis; type: functional
C6 [23] = experiment: Increase in phosphorylated p38 level in rat C6 cells after 0.5 to 3 hrs by Western blot analysis; type: cell-based
HT-29 [24] = experiment: Induction of cell cycle arrest in human HT-29 cells assessed as decrease in cell level at G2M phase after 24 to 48 hrs by propidium iodide staining-based flow cytometric analysis; type: functional
[25] = target: Mitogen-activated protein kinase 1 and 3 (ERK2 and ERK1) (Rattus norvegicus) (UniProt P63086+P21708); experiment: Effect on ERK1/2 phosphorylation in rat C6 cells at 10 to 50 uM after 0.5 to 24 hrs by Western blot analysis; type: cell-based
Sequence of Mitogen-activated protein kinase 1 and 3 (ERK2 and ERK1) (Rattus norvegicus) (P21708 whole entry, looked up): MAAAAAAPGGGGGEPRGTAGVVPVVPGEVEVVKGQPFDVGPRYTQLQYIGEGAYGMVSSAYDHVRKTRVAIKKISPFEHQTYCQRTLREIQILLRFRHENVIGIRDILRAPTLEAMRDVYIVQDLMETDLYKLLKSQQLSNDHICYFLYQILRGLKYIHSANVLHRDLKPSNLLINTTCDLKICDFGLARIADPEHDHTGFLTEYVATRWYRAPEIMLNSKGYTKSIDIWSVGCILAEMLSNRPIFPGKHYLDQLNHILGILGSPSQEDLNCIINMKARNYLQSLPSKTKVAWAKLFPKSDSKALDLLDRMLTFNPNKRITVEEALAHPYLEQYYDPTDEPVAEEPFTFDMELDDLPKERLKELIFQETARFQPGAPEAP
Sequence of Mitogen-activated protein kinase 1 and 3 (ERK2 and ERK1) (Rattus norvegicus) (P63086 whole entry, looked up): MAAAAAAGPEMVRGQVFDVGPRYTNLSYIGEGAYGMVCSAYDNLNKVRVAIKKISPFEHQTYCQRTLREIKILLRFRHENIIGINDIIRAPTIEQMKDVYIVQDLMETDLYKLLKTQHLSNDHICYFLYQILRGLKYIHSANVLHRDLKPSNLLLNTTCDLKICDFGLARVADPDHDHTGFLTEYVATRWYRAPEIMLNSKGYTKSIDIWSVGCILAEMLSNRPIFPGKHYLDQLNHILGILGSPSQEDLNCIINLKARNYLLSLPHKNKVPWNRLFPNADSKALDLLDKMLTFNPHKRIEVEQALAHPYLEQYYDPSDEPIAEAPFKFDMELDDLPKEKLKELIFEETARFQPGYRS

C6 [26] = experiment: Inhibition of DNA synthesis in rat C6 cells assessed as BrdU incorporation after 48 hrs by ELISA; type: functional, cell-based
HT-29 [27] = experiment: Induction of cell cycle arrest in human HT-29 cells assessed as decrease in cell level at S phase after 24 to 48 hrs by propidium iodide staining-based flow cytometric analysis; type: functional
[28] = Cytotoxicity against rat FaO cells assessed as cell viability at 10 to 100 uM after 24 hrs by LDH assay; type: cell-based
C6 [29] = experiment: Effect on c-myc expression in rat C6 cells at 10 to 50 uM after 0.5 to 24 hrs by Western blot analysis; type: functional, cell-based
HT-29 [30] = experiment: Effect on c-myc expression in human HT-29 cells at 10 to 50 uM after 0.5 to 24 hrs by Western blot analysis; type: functional, cell-based
HT-29 [31] = experiment: Induction of cell cycle arrest in human HT-29 cells assessed as accumulation at G0/G1 phase at 50 uM after 24 to 48 hrs by propidium iodide staining-based flow cytometric analysis; type: functional
C6 [32] = experiment: Induction of cell cycle arrest in rat C6 cells assessed as decrease in cell level at G2M phase after 24 to 48 hrs by propidium iodide staining-based flow cytometric analysis; type: functional
A549 [33] = experiment: Induction of cell cycle arrest in human A549 cells assessed as decrease in cell level at G2M phase after 24 to 48 hrs by propidium iodide staining-based flow cytometric analysis; type: functional
C6 [34] = experiment: Increase in phosphorylated p38 level in rat C6 cells at 10 to 50 uM after 24 hrs by Western blot analysis; type: cell-based
A549 [35] = experiment: Induction of cell cycle arrest in human A549 cells assessed as accumulation at G0/G1 phase after 24 to 48 hrs by propidium iodide staining-based flow cytometric analysis; type: functional
C6 [36] = experiment: Antiproliferative activity against rat C6 cells after 96 hrs by MTT assay; type: functional, cell-based
C6 [37] = experiment: Decrease in cyclin D1 expression in rat C6 cells at 50 uM after 0.5 to 24 hrs by Western blot analysis; type: functional, cell-based

- IC50 (A549 [3]; A549, 96 h): 32.9 µM
- Activity [4]: Dose-dependent effect
- Activity [6]: inactive
- Activity [8]: inactive
- Activity [13]: Dose-dependent effect
- IC50 (HT-29 [19]; HT-29, 96 h): 38.6 µM
- Activity [21]: inactive
- Activity [25]: inactive
SMILES: CC(C)(C)c1cc2nc(-c3cc(Cl)c(O)cc3O)sc(=O)c2s1
- Activity [1]: Toxic
- Activity [2]: Non-toxic
- Activity (A549 [3]): Dose-dependent effect
- inhibition (A549 [5]): Dose-dependent effect
- Activity (C6 [7]): inactive
- Activity (A549 [9]): inactive
- inhibition (HT-29 [10]): Dose-dependent effect
- Activity (C6 [11]): inactive
- Activity (A549 [12]): Dose-dependent effect
- Activity (A549 [14]): Active
- Activity (HT-29 [15]): Active
- Activity [16]: Non-toxic
- Activity (A549 [17]): inactive
- Activity (C6 [18]): Dose-dependent effect
- Activity (HT-29 [19]): Dose-dependent effect
- Activity (HT-29 [20]): inactive
- Activity (C6 [22]): Dose-dependent effect
- Activity (C6 [23]): Dose-dependent effect
- Activity (HT-29 [24]): Dose-dependent effect
- inhibition (C6 [26]): Dose-dependent effect
- Activity (HT-29 [27]): Dose-dependent effect
- Activity [28]: Non-toxic
- Activity (C6 [29]): inactive
- Activity (HT-29 [30]): inactive
- Activity (HT-29 [31]): Dose-dependent effect
- Activity (C6 [32]): Dose-dependent effect
- Activity (A549 [33]): Dose-dependent effect
- Activity (C6 [34]): inactive
- Activity (A549 [35]): Dose-dependent effect
- Activity (C6 [36]): Dose-dependent effect
- IC50 (C6 [36]; C6, 96 h): 87.4 µM
- Activity (C6 [37]): Active
